Organism: Rattus norvegicus
Assay: Open TG-GATES - Regimen: Single
Assay type: toxicity, organism-based, Sprague-Dawley
Design: regimen Single, gender Male, age 6 weeks
Settings: in vivo, po, route gavage; for APTT / Bas / Eos / Fbg / Hb / Ht / Lym / MCHC / MCV / Mono / Neu / PT / Plat / RBC / Ret / WBC: tissue Blood; for KIDNEY_L / KIDNEY_R / KIDNEY_TOTAL: tissue Kidney; for LIVER: tissue Liver; for ALP / ALT / AST / BUN / CRE / Ca / Cl / DBIL / GLC / IP / K / LDH / Na / PL / RALB / TBIL / TC / TG / TP / gamma-GTP: tissue Plasma
[1] = 0 mg/kg, 3 h, dose level Control
[2] = 0 mg/kg, 6 h, dose level Control
[3] = 0 mg/kg, 9 h, dose level Control
[4] = 0 mg/kg, 24 h, dose level Control

## C1CCC(C(CC2CCCCN2)C2CCCCC2)CC1 (stereo not drawn) [PERHEXILINE]
[1]
  TERMINAL_BW: 206.4 g
  APTT: 21.3 s
  Bas: 0%
  Eos: 0.6%
  Fbg: 324 mg/dL
  Hb: 13.5 g/dL
  Ht: 39.5%
  Lym: 80.6%
  MCHC: 34%
  MCV: 62.3 fL
  Mono: 1.4%
  Neu: 16.8%
  PT: 16 s
  Plat: 117.8 x10_4/uL
  RBC: 634.6 x10_4/ul
  Ret: 6.3%
  WBC: 77.4 x10_2/uL
  KIDNEY_L: 0.9 g
  KIDNEY_R: 0.9 g
  KIDNEY_TOTAL: 1.8 g
  LIVER: 9.2 g
  ALP: 1964.4 IU/L
  ALT: 42.6 IU/L
  AST: 70.8 IU/L
  BUN: 14.8 mg/dL
  CRE: 0.1 mg/dL
  Ca: 10.9 mg/dL
  Cl: 106.8 meq/L
  DBIL: 0.002 mg/dL
  GLC: 192.6 mg/dL
  IP: 7.8 mg/dL
  K: 4.2 meq/L
  LDH: 147.6 IU/L
  Na: 140.4 meq/L
  PL: 144.4 mg/dL
  RALB: 3.2 g/dL
  TBIL: 0.014 mg/dL
  TC: 79.8 mg/dL
  TG: 63.4 mg/dL
  TP: 5.7 g/dL
  gamma-GTP: 0.8 IU/L
[2]
  TERMINAL_BW: 210.1 g
  APTT: 20.9 s
  Bas: 0%
  Eos: 0.4%
  Fbg: 317.4 mg/dL
  Hb: 13.2 g/dL
  Ht: 39.3%
  Lym: 79.8%
  MCHC: 33.6%
  MCV: 65.6 fL
  Mono: 2.2%
  Neu: 16.6%
  PT: 15.7 s
  Plat: 130.2 x10_4/uL
  RBC: 599.8 x10_4/ul
  Ret: 7.4%
  WBC: 75.5 x10_2/uL
  KIDNEY_L: 1 g
  KIDNEY_R: 1 g
  KIDNEY_TOTAL: 1.9 g
  LIVER: 9.3 g
  ALP: 1510 IU/L
  ALT: 37.8 IU/L
  AST: 67.8 IU/L
  BUN: 11.4 mg/dL
  CRE: 0.1 mg/dL
  Ca: 10.8 mg/dL
  Cl: 105.2 meq/L
  DBIL: 0 mg/dL
  GLC: 178.8 mg/dL
  IP: 9.8 mg/dL
  K: 4 meq/L
  LDH: 239.2 IU/L
  Na: 140.4 meq/L
  PL: 147.8 mg/dL
  RALB: 3 g/dL
  TBIL: 0.018 mg/dL
  TC: 81.2 mg/dL
  TG: 77.4 mg/dL
  TP: 5.6 g/dL
  gamma-GTP: 1 IU/L
[3]
  TERMINAL_BW: 206.4 g
  APTT: 21.8 s
  Bas: 0%
  Eos: 0.6%
  Fbg: 319 mg/dL
  Hb: 13.2 g/dL
  Ht: 39.2%
  Lym: 75.8%
  MCHC: 33.7%
  MCV: 64.6 fL
  Mono: 1.8%
  Neu: 20.4%
  PT: 15.6 s
  Plat: 131 x10_4/uL
  RBC: 606.6 x10_4/ul
  Ret: 7.3%
  WBC: 89.6 x10_2/uL
  KIDNEY_L: 0.9 g
  KIDNEY_R: 1 g
  KIDNEY_TOTAL: 1.9 g
  LIVER: 9.2 g
  ALP: 1422.6 IU/L
  ALT: 33.8 IU/L
  AST: 62.2 IU/L
  BUN: 11.4 mg/dL
  CRE: 0.1 mg/dL
  Ca: 10.9 mg/dL
  Cl: 105.6 meq/L
  DBIL: 0 mg/dL
  GLC: 193.8 mg/dL
  IP: 9.4 mg/dL
  K: 3.9 meq/L
  LDH: 196.4 IU/L
  Na: 139.6 meq/L
  PL: 135.6 mg/dL
  RALB: 3 g/dL
  TBIL: 0.012 mg/dL
  TC: 76.4 mg/dL
  TG: 70 mg/dL
  TP: 5.6 g/dL
  gamma-GTP: 0.8 IU/L
[4]
  TERMINAL_BW: 228.6 g
  APTT: 20.7 s
  Bas: 0%
  Eos: 0.8%
  Fbg: 315.6 mg/dL
  Hb: 13.1 g/dL
  Ht: 39.4%
  Lym: 74.8%
  MCHC: 33.3%
  MCV: 65.2 fL
  Mono: 2.4%
  Neu: 21.2%
  PT: 16 s
  Plat: 120.5 x10_4/uL
  RBC: 604.2 x10_4/ul
  Ret: 7.2%
  WBC: 89.3 x10_2/uL
  KIDNEY_L: 1 g
  KIDNEY_R: 1 g
  KIDNEY_TOTAL: 2.1 g
  LIVER: 11.2 g
  ALP: 1688.8 IU/L
  ALT: 42.6 IU/L
  AST: 66.4 IU/L
  BUN: 16.8 mg/dL
  CRE: 0.1 mg/dL
  Ca: 11 mg/dL
  Cl: 105.4 meq/L
  DBIL: 0 mg/dL
  GLC: 196.6 mg/dL
  IP: 7.1 mg/dL
  K: 4.3 meq/L
  LDH: 177.6 IU/L
  Na: 141.6 meq/L
  PL: 154.2 mg/dL
  RALB: 3.2 g/dL
  TBIL: 0.014 mg/dL
  TC: 76.8 mg/dL
  TG: 149.4 mg/dL
  TP: 5.7 g/dL
  gamma-GTP: 1 IU/L
15 mg/kg, 3 h, dose level Low
  TERMINAL_BW: 217 g
  APTT: 20.2 s
  Bas: 0%
  Eos: 0.6%
  Fbg: 331 mg/dL
  Hb: 13.3 g/dL
  Ht: 39.6%
  Lym: 79.8%
  MCHC: 33.5%
  MCV: 63.8 fL
  Mono: 1.8%
  Neu: 16.8%
  PT: 15.6 s
  Plat: 121.9 x10_4/uL
  RBC: 620.8 x10_4/ul
  Ret: 7.8%
  WBC: 62.3 x10_2/uL
  KIDNEY_L: 1 g
  KIDNEY_R: 1 g
  KIDNEY_TOTAL: 1.9 g
  LIVER: 10.1 g
  ALP: 1601.6 IU/L
  ALT: 47 IU/L
  AST: 74 IU/L
  BUN: 13 mg/dL
  CRE: 0.1 mg/dL
  Ca: 11 mg/dL
  Cl: 105.6 meq/L
  DBIL: 0.002 mg/dL
  GLC: 181.2 mg/dL
  IP: 8.6 mg/dL
  K: 4 meq/L
  LDH: 183.8 IU/L
  Na: 140.8 meq/L
  PL: 149.4 mg/dL
  RALB: 3.2 g/dL
  TBIL: 0.022 mg/dL
  TC: 81.2 mg/dL
  TG: 90.2 mg/dL
  TP: 5.7 g/dL
  gamma-GTP: 0.6 IU/L
15 mg/kg, 6 h, dose level Low
  TERMINAL_BW: 212 g
  APTT: 20.7 s
  Bas: 0%
  Eos: 0.8%
  Fbg: 320.2 mg/dL
  Hb: 13.1 g/dL
  Ht: 39.6%
  Lym: 79.6%
  MCHC: 33.1%
  MCV: 64.4 fL
  Mono: 2%
  Neu: 16.4%
  PT: 15.6 s
  Plat: 134.6 x10_4/uL
  RBC: 615.4 x10_4/ul
  Ret: 7.9%
  WBC: 77.4 x10_2/uL
  KIDNEY_L: 1 g
  KIDNEY_R: 1 g
  KIDNEY_TOTAL: 2 g
  LIVER: 9.5 g
  ALP: 1590.2 IU/L
  ALT: 39 IU/L
  AST: 70 IU/L
  BUN: 10.6 mg/dL
  CRE: 0.1 mg/dL
  Ca: 10.9 mg/dL
  Cl: 105.8 meq/L
  DBIL: 0 mg/dL
  GLC: 170.4 mg/dL
  IP: 9.5 mg/dL
  K: 4.4 meq/L
  LDH: 209.6 IU/L
  Na: 139.2 meq/L
  PL: 134.6 mg/dL
  RALB: 3.1 g/dL
  TBIL: 0.018 mg/dL
  TC: 77.2 mg/dL
  TG: 73.6 mg/dL
  TP: 5.6 g/dL
  gamma-GTP: 1 IU/L
15 mg/kg, 9 h, dose level Low
  TERMINAL_BW: 204.6 g
  APTT: 21.4 s
  Bas: 0%
  Eos: 0.8%
  Fbg: 303.4 mg/dL
  Hb: 12.8 g/dL
  Ht: 38.4%
  Lym: 76.2%
  MCHC: 33.5%
  MCV: 62.1 fL
  Mono: 1.6%
  Neu: 21%
  PT: 15.5 s
  Plat: 127.1 x10_4/uL
  RBC: 619.8 x10_4/ul
  Ret: 7%
  WBC: 67.3 x10_2/uL
  KIDNEY_L: 1 g
  KIDNEY_R: 1 g
  KIDNEY_TOTAL: 2 g
  LIVER: 8.9 g
  ALP: 1312.6 IU/L
  ALT: 38 IU/L
  AST: 65.8 IU/L
  BUN: 10.2 mg/dL
  CRE: 0.1 mg/dL
  Ca: 11 mg/dL
  Cl: 105.6 meq/L
  DBIL: 0.004 mg/dL
  GLC: 172 mg/dL
  IP: 9.4 mg/dL
  K: 3.9 meq/L
  LDH: 186.2 IU/L
  Na: 139.6 meq/L
  PL: 124.4 mg/dL
  RALB: 3.1 g/dL
  TBIL: 0.014 mg/dL
  TC: 68.8 mg/dL
  TG: 49.2 mg/dL
  TP: 5.7 g/dL
  gamma-GTP: 1 IU/L
15 mg/kg, 24 h, dose level Low
  TERMINAL_BW: 216.9 g
  APTT: 20.4 s
  Bas: 0%
  Eos: 0.8%
  Fbg: 319.6 mg/dL
  Hb: 13.3 g/dL
  Ht: 39.1%
  Lym: 77.8%
  MCHC: 34.1%
  MCV: 63.5 fL
  Mono: 1.8%
  Neu: 18.6%
  PT: 15.8 s
  Plat: 130.2 x10_4/uL
  RBC: 616.8 x10_4/ul
  Ret: 6.2%
  WBC: 108.7 x10_2/uL
  KIDNEY_L: 1 g
  KIDNEY_R: 1 g
  KIDNEY_TOTAL: 1.9 g
  LIVER: 10 g
  ALP: 1593 IU/L
  ALT: 47 IU/L
  AST: 70.6 IU/L
  BUN: 17 mg/dL
  CRE: 0.1 mg/dL
  Ca: 10.8 mg/dL
  Cl: 106.8 meq/L
  DBIL: 0 mg/dL
  GLC: 185.6 mg/dL
  IP: 7.1 mg/dL
  K: 4.1 meq/L
  LDH: 212.8 IU/L
  Na: 142 meq/L
  PL: 158.8 mg/dL
  RALB: 3.2 g/dL
  TBIL: 0.012 mg/dL
  TC: 81.8 mg/dL
  TG: 122 mg/dL
  TP: 5.7 g/dL
  gamma-GTP: 1 IU/L
